Assay results as given in ChEMBL document CHEMBL1821650, “Pharmacodynamic synergy strictly dependent on the co-operative aggregation of enantiomers of cyclic peptides in the bacterial cell membrane” (Bioorg Med Chem Lett, 2011).
Active and inactive are the calls of the source. The rule behind the calls is not given here.

Tests used:
[1] = Solubility of the compound in 33 % acetonitrile-water; format: physicochemical; details: buffer
Priestia megaterium [2] = assay: Antimicrobial activity against Bacillus megaterium at > 50 uM by broth microdilution method; format: functional, organism-based
Priestia megaterium [3] = assay: Antimicrobial activity against Bacillus megaterium after 18 hrs by broth microdilution method; format: functional, organism-based
Priestia megaterium [4] = assay: Antimicrobial activity against Bacillus megaterium at 1 mM after 24 hrs by agar diffusion method; format: functional, organism-based
[5] = Toxicity in sheep erythrocytes assessed as hemolysis at up to 1000 uM after 20 mins; format: cell-based, Ovis aries; details: erythrocyte
[6] = Toxicity in sheep erythrocytes assessed as hemolysis at up to 100 uM after 20 mins; format: cell-based, Ovis aries; details: erythrocyte

solubility [1]	SMILES	Activity (Priestia megaterium [2])	Activity (Priestia megaterium [3])	Activity (Priestia megaterium [4])	Activity [5]	Activity [6]
soluble	CC(C)(C)C[C@H]1NC(=O)[C@H](CCC(N)=O)NC(=O)[C@@H](CC(C)(C)C)NC(=O)[C@H](CCC(N)=O)NC(=O)[C@@H](CC(C)(C)C)NC(=O)[C@H](CCC(=O)O)NC(=O)[C@@H](CC(C)(C)C)NC(=O)[C@H](CCC(N)=O)NC1=O	–	–	–	–	–
–	C[C@@H]1NC(=O)[C@@H](CC(C)(C)C)NC(=O)[C@H](C)NC(=O)[C@@H](CC(C)(C)C)NC(=O)[C@@H](CCCCN)NC(=O)[C@@H](CC(C)(C)C)NC(=O)[C@H](C)NC(=O)[C@@H](CC(C)(C)C)NC1=O	Active	inactive	inactive	Non-toxic	–
–	C[C@H]1NC(=O)[C@H](CC(C)(C)C)NC(=O)[C@@H](C)NC(=O)[C@H](CC(C)(C)C)NC(=O)[C@@H](C)NC(=O)[C@H](CC(C)(C)C)NC(=O)[C@H](CCCCN)NC(=O)[C@H](CC(C)(C)C)NC1=O	Active	inactive	inactive	Non-toxic	–
–	C[C@H]1NC(=O)[C@H](CC(C)(C)C)NC(=O)[C@@H](C)NC(=O)[C@H](CC(C)(C)C)NC(=O)[C@@H](CCCCN)NC(=O)[C@H](CC(C)(C)C)NC(=O)[C@@H](C)NC(=O)[C@H](CC(C)(C)C)NC1=O	–	Active	Active	–	Non-toxic
–	C[C@@H]1NC(=O)[C@@H](CC(C)(C)C)NC(=O)[C@H](C)NC(=O)[C@@H](CC(C)(C)C)NC(=O)[C@H](CCCCN)NC(=O)[C@@H](CC(C)(C)C)NC(=O)[C@H](C)NC(=O)[C@@H](CC(C)(C)C)NC1=O	–	Active	Active	–	Non-toxic
soluble	CC(C)(C)C[C@@H]1NC(=O)[C@@H](CCC(N)=O)NC(=O)[C@H](CC(C)(C)C)NC(=O)[C@@H](CCC(N)=O)NC(=O)[C@H](CC(C)(C)C)NC(=O)[C@@H](CCC(=O)O)NC(=O)[C@H](CC(C)(C)C)NC(=O)[C@@H](CCC(N)=O)NC1=O	–	–	–	–	–
